Data on nine compounds can be found in patent publication US6077826A, “Synthetic macromolecular channel assembly for transport of chloride ions through epithelium useful in treating cystic fibrosis” (Kansas State University Research Foundation, priority 1998, dated 2000).

The target of one experiment is T1, tetrameric channel (Homo sapiens, UniProt P23415).
T1 construct: 9-amino acid carrier template (tethers four peptide copies)
The settings on record: lipid bilayers; cited from earlier work.

The subject of experiment [1] is C-K4 -M2GlyR-generated (SEQ ID NO: 7) ISC across MDCK monolayers. Briefly: Effect of Cl- transport inhibitors on C-K4-M2GlyR-generated Isc across MDCK monolayers. Format: cell-based, canine. The settings on record: for fraction of stimulated current remaining: four monolayers. The method, then:
Electrical measurements. MDCK cells (2.5×10^5) were plated on permeable supports (Snapwell, 12 mm dia.; Costar Corp), coated with a mixture of types I and III collagen (ICN, Costa Mesa, Ca.). The Snapwell supports were placed in a 6 well culture plate containing DME/F12+P/S and 1% FCS (0.4 mL in the upper part and 5 mL in the lower). MDCK monolayers were allowed to reach confluency and after 5 days of growth were mounted in Using chambers designed for cell culture (Costar). The position of the monolayer and the supporting membrane separated the apical and the basolateral compartments. Both sides of the monolayers were bathed in 5 mL of a Ringer's solution containing (in mM); 147 Na^+, 119 Cl^-, 20 HCO3^-, 6 alanine, 5 K^+, 5 acetate, 5 glucose, 4 lactate, 2.5 HPO4^- 1.2 Mg^+2, 1.2 SO4^-2 1 citrate, 0.5 butyric acid and 14 raffinose. The media in each half-chamber was circulated by a bubble-lift method with a gas mixture of 95% O2 /5% CO2 and maintained at 37° C. In experiments in which we removed chloride from the Ringer's solution, the molar equivalent of cyclamate was used.
The transepithelial voltage was measured using glass capillary tubes containing a plug of 5% agar in 3 M KCl and situated near each side of the cell layer. The glass tube was filled above the agar plug with 3 M KCl and Ag/AgCl electrodes were inserted into the KCI. Current electrodes consisted of a coil of platinum wire (30 gauge) located at the ends of each half-chamber. Transepithelial potential (Vtc); the short-circuitcurrent (Isc), the current necessary to clamp the voltage to zero; and the transepithelial resistance (Ftc) were measured at five minute intervals with a dual epithelial voltage clamp apparatus (Warner Instrument, Hamden, Conn.) as previously described in detail (Mangoo-Karimet al.; 1995). The average of the last two measurements in each period were used for comparison between pairs of monolayers and among each group.
In electrophysiological studies, niflumic acid, 5-nitro-2-(3-phenylpropylamino)-benzoate (NPPB, provided by SmithKline Beecham), diphenylamine-2-carboxylate (DPC, Fluka Chemika), and glibenclamide were dissolved in 100% ethanol. The maximal final concentration of ethanol, 0.5%, was without effect on Isc.
Effect of Cl^- channel blockers. We tested a variety of Cl^- channel blockers on the Isc generated by apical application of C-K4 -M2GlyR (SEQ ID NO: 7). […]. […] A negative change indicates a reduction in the current. The sensitivity sequence of the peptide-induced current to the Cl^- channel blockers was niflumic acid≥NPPB>DPC>glibenclamide>>>DIDS.

For a further experiment, the system named is M2GlyR-stimulated Isc. Kind of experiment: Effect of Cl- transport inhibitors on M2GlyR-stimulated Isc in MDCK monolayers. The class given is cell-based, canine.
Experiment [2] has as its system forskolin-stimulated current. The settings on record: apical DPC, previously published dose response; cited from earlier work.
Experiment [3] concerns MDCK monolayers. Kind of experiment: Fluid secretion / fluid transport by MDCK monolayers (24 hr collection). The settings on record: 500 μM apical peptide or 10 μM basolateral forskolin, n = 12 (Table 6).
Experiment [4] concerns MDCK monolayers. Briefly: Intracellular cAMP by radioimmunoassay in MDCK monolayers. The class given is cell-based, canine. The following applies: 10 μM forskolin, 2 hrs. As to the method:
Cyclic adenosine monophosphate measurements. Confluent monolayers of MDCK cells were incubated in defined media (1.7 mL apical and 2.5 mL basolateral) or defined media containing either 10 μM basolateral forskolin or 500 μM apical C-K4 -[…] (SEQ ID NO: 7) for two hours. Monolayers were rinsed in Ca^+2 -, Mg^+2 -tree phosphate buffered saline (PBS), then treated with 5% trichloroacetic acid (TCA) to deactivate endogenous phosphodiesterases. […] Intracellular cAMP remained in the aqueous phase. After the water and ether phases separated, the water phase was collected. Relative levels of intracellular cAMP were determined by radioimmunoassay (Biomedical Technology Inc, Stoughton, Mass.) using methods previously described (Krishna and Terranova; 1987).

The mark [5] stands for this setting: 100 μM inhibitor apical for 20 minutes after 100 μM C-K4-M2GlyR, negative = inhibition.
Setting [6] is: 100 μM basolateral bumetanide after 100 μM apical SEQ ID NO: 7, n = 8.
Setting [7] is: 100 μM basolateral bumetanide after 100 μM apical SEQ ID NO: 7, n = 8, listed as bumetanide.

T1 sequence (P23415 278-300 limits assumed): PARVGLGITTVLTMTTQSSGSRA

Regarding `Cc1cccc(C)c1NC(=O)C[N+](C)(C)C` [QX-222], on tetrameric channel, the “block of the tetrameric channel” value is “not blocked”.

Take `O=C(O)c1cccnc1Nc1cccc(C(F)(F)F)c1` [Niflumic acid, niflumic acid]: the inhibition at 100 µM in experiment [1] (Canis lupus familiaris, MDCK, 20 min, heading: 100 inhibitor in ISC, 100 μM inhibitor apical for 20 minutes after 100 μM C-K4-M2GlyR, negative = inhibition, read-out: 100 μM inhibitor (percent change) in ISC) is 57.1 ± 3.8%. Moreover, at tetrameric channel, the “block of the tetrameric channel” value is listed as “blocked”.

Consider `O=C(O)c1cc([N+](=O)[O-])ccc1NCCCc1ccccc1` [NPPB, 5-nitro-2-(3-phenylpropylamino)-benzoate], for which the “100 μM inhibitor (percent change) in ISC” value in experiment [1] (setting [5]) is recorded as -55.2 ± 4.5%.

As to `COc1ccc(Cl)cc1C(=O)NCCc1ccc(S(=O)(=O)NC(=O)NC2CCCCC2)cc1` [Glibenclamide, glibenclamide], the percent change in Isc at 100 µM in experiment [1] (Canis lupus familiaris, MDCK, 20 min, 100 μM inhibitor apical for 20 minutes after 100 μM C-K4-M2GlyR, negative = inhibition) is -18 ± 3.1%.

Turning to `O=C(O)c1ccccc1Nc1ccccc1` [DPC, diphenylamine-2-carboxylate], the “DPC concentration sufficient to return Isc to the control level” value in the experiment on M2GlyR-stimulated Isc (apical DPC after M2GlyR, four experiments) is recorded as less than 1 mM. The “fraction of stimulated current remaining” value in experiment [1] (100 μM apical DPC) is listed as 68±2%; in experiment [1] (1 mM apical DPC), 41±6%; in experiment [1] (3 mM apical DPC), 26±5%. The “100 μM inhibitor (percent change) in ISC” value in experiment [1] (setting [5]) is given as -38.0 ± 0.8%. Further, the “dose of DPC required to significantly inhibit the forskolin-stimulated current” value in experiment [2] was 3 mM.

In the case of `O=C(O)c1c2ccccc2cc2ccccc12` [9-AC, 9-anthracene carboxylic acid], the “block of the tetrameric channel” value on tetrameric channel was “blocked”.

Take `CCCCNc1cc(C(=O)O)cc(S(N)(=O)=O)c1Oc1ccccc1` [Bumetanide, bumetanide]: the “Isc after subsequent addition of bumetanide” value with M2GlyR-stimulated Isc (100 μM basolateral bumetanide after M2GlyR, five experiments) is listed as 1.3±0.3 μA/cm^2. In experiment [1] (setting [6]), this compound returned an ISC after bumetanide of 1.4 ± 0.4 μA/cm^2, a Rtc after bumetanide of 2145 ± 474 Ohms.cm^2 and a Vtc after bumetanide of -2.8±0.6 mV. In experiment [1] (setting [7]), the ISC after bumetanide is recorded as 1.4 μA/cm^2 and the Rtc after bumetanide entry is “not significant”. Further, the “inhibition of the peptide-generated Isc” value in experiment [1] (100 μM basolateral bumetanide, n = 8) is given as 97%. For the same compound, in experiment [1] (100 μM basolateral bumetanide, typical experiment FIG. 6), the “effect on the peptide-generated current” value is given as “blocked the peptide-generated current”.

Take `O=C1C[C@@H]2OCC=C3CN4CC[C@]56c7ccccc7N1[C@H]5[C@H]2[C@H]3C[C@H]46` [Strychnine]: at tetrameric channel, the “block of the tetrameric channel” value was “does not block”.

As for `C=C[C@@]1(C)CC(=O)[C@]2(O)[C@@]3(C)[C@@H](O)CCC(C)(C)[C@@H]3[C@H](O)[C@H](OC(C)=O)[C@@]2(C)O1` [forskolin], in the experiment on MDCK monolayers [3], the “fluid transport by MDCK monolayers” value worked out at 0.47 ± 0.05 μL/hr/cm^2. Further, in the experiment on MDCK monolayers [4], the “increase of cAMP levels above the control” value was found to be 266%.
